# Source: PMC6683251, “Flavanol Bioavailability in Two Cocoa Products with Different Phenolic Content. A Comparative Study in Humans” (Nutrients, 2019)
# Like-named read-outs stand apart in the source and are kept apart here.
# Legend:
# [1] = Plasma nutrikinetics of flavanol metabolites after a single serving of soluble cocoa product (HPLC-ESI-QToF-MS); assay type: in vivo, human; conditions: plasma and urine, CC and CC-PP
# Protocol: The study was carried out in thirteen healthy subjects (3 men and 10 women); the mens’ average age and body mass index were 26.67 ± 3.21 year and 22.47 ± 2.97 kg/m^2, respectively, and womens’ were 32.60 ± 9.85 year and 23.36 ± 3.73 kg/m^2, respectively. They were non-smoker, non-vegetarian, non-pregnant women, who were not taking any medication or nutritional supplements, and were not suffering from any chronic pathology or gastrointestinal disorder. The sample size was estimated attending to similar previous bioavailability studies. The volunteers gave their informed consent prior to participation.
# The present randomized, single-blind study was carried out at the Human Nutrition Unit (HNU) of the Institute of Food Science, Technology and Nutrition (ICTAN). Volunteers attended the HNU on two days, separated by two weeks. Three days previous to each visit, participants were instructed not to consume cocoa products (chocolate, soluble cocoa, etc.), juices, tea, wine, grape must, oranges, tangerines, apples, grapes, strawberries or other berries, beets, onions, soybeans and soy derivatives. In addition, volunteers were asked to complete a 24 h food intake recall the day before they attended the HNU in order to monitor any possible food restriction incompliance.
# On each intervention day, volunteers arrived at the HNU after an overnight fast. Prior to the intake of the soluble cocoa product, a nurse inserted a cannula in the cubital vein of the non-prevailing arm of the volunteers and blood samples were collected into EDTA-coated tubes at baseline (t = 0) and 0.5, 1, 2, 3, 4, 6, and 8 h after consuming the corresponding cocoa product. The soluble cocoa products, either 15 g of CC or 25 g CC-PP, were dissolved in 200 mL of semi-skimmed milk following manufacturer’s preparation instructions. Plasma was separated by centrifugation (10 min, 3000 rpm, 4 °C) and stored at −80 °C until further analysis. Urine samples were collected at different time intervals (t = −2–0, 0–4, 4–8, 8–12, and 12–24 h) in urine collection flasks that contained 0.5 g of ascorbic acid as preservative and were aliquoted and frozen at −20 °C until analysis. A polyphenol-free breakfast, lunch and afternoon snack were provided 2 h, 4 h, and 8 h after consumption of cocoa products, and water and isotonic beverages were available ad libitum.
# A liquid–liquid extraction and protein precipitation with acetonitrile was used to isolate metabolites from plasma. A 1 mL defrosted plasma sample was mixed with 50 μL of ascorbic acid (0.2 g/mL). After vortexing the aqueous mixture, it was added drop wise to 750 μL of cold acetonitrile and vortexed for 2 min before centrifuging at 12,000 rpm for 10 min at 4 °C. The supernatant was separated, and the pellet was re-extracted twice more following the same procedure. Supernatants were combined and reduced to dryness under a stream of nitrogen at 30 °C. The dried samples were resuspended in 150 μL of aqueous formic acid (0.1%) containing 10% acetonitrile acidified with 0.1% formic acid and centrifuged at 4 °C for 20 min at 14,000 rpm. The final supernatant was collected, filtered (0.45 μm pore-size, cellulose-acetate membrane filters, Albet, Dassel (Germany)) and 30 μL were analyzed by high-performance liquid chromatography coupled to electrospray ionisation and quadrupole time-of-flight mass spectrometry (HPLC-ESI-QToF-MS).
# Analyses were performed on an Agilent 1200 series LC system coupled to an Agilent 6530A Accurate-Mass Quadrupole Time-Of-Flight (Q-ToF) with ESI-Jet Stream Technology (Agilent Technologies). Compounds were separated on a reverse-phase Ascentis Express C18 (15 cm × 3 mm, […]) column (Sigma-Aldrich Química, Madrid) preceded by a Supelco 55215-U guard column at 30 °C. […]
# [2] = Urinary excretion of flavanol metabolites (0-24 h) after a single serving of soluble cocoa product (HPLC-ESI-QToF-MS); assay type: in vivo, human; conditions: any of the interventions (CC, CC-PP)
# Procedure, shortened: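 Fasted women drank 15 g CC or 25 g CC-PP soluble cocoa in 200 mL semi-skimmed milk, in a randomized, single-blind design with visits two weeks apart and a 3-day low-polyphenol diet beforehand. Excreted amounts were normalized to urine volume per interval, quantified against standards or precursor calibration curves.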
# [3] = cited from earlier work
# [4] = parameters: method as in PMID 23864538; conditions: based on recovery in the perfusion fluid, eight volunteers; cited from earlier work
structure (smiles),measurement,setting,value
Oc1cc(O)c2c(c1)O[C@H](c1ccc(O)c(O)c1)[C@H](O)C2 [epicatechin],Detection of un-metabolized compound in the collected biological fluids,[1],Neither un-metabolized epicatechin and catechin nor procyanidins B1 and B2 were detected
same,Detection of un-metabolized compound in urine,[2],Neither epicatechin nor PB2 dimer was detected in urine
same,Excretion,[3]; after ingestion of chocolate providing 220 mg of flavanols,29.8%
same,Excretion,[3]; after ingestion of cocoa providing 220 mg of flavanols,25.3%
same,"Jejunal absorption, average",[4],~ 46%
